From ChEMBL document CHEMBL1806493, “Synthesis and biological activities of 4-N-(anilinyl-n-[oxazolyl])-7-chloroquinolines (n=3' or 4') against Plasmodium falciparum in in vitro models” (Bioorg Med Chem Lett, 2011) come the findings set out here.

Data set [1] has as its system Plasmodium falciparum. The data set can be described thus: Antiplasmodial activity against chloroquine-sensitive Plasmodium falciparum 3D7A assessed as death of all detectable parasites at two days dosage of 50 to 500 uM using Hema 3 staining by microscopic analysis. The data set is classed as functional, organism-based.
The subject of data set [2] is Plasmodium falciparum. Briefly: Antiplasmodial activity against chloroquine-sensitive Plasmodium falciparum 3D7A assessed as parasitaemia level at two days dosage of 5 uM measured on day 2 using Hema 3 staining by microscopic analysis. The class given is functional.
The subject of data set [3] is Plasmodium falciparum. The data set can be described thus: Antiplasmodial activity against chloroquine-sensitive Plasmodium falciparum 3D7A assessed as parasitaemia level at two days dosage of 5 uM measured on day 9 using Hema 3 staining by microscopic analysis. The data set is classed as functional.
The test system of data set [4] is Plasmodium falciparum. Briefly: Antiplasmodial activity against chloroquine-sensitive Plasmodium falciparum 3D7A assessed as undetectable parasitaemia level at 4 days dosage of 5 uM measured on day 3 using Hema 3 staining by microscopic analysis. The data set is classed as functional, organism-based.
For data set [5], the system named is Plasmodium falciparum. The data set can be described thus: Antiplasmodial activity against chloroquine-sensitive Plasmodium falciparum 3D7A assessed as death of all detectable parasites at 4 days dosage of 50 to 500 uM using Hema 3 staining by microscopic analysis. The class given is functional, organism-based.
The test system of data set [6] is Plasmodium falciparum. The data set can be described thus: Antiplasmodial activity against chloroquine-sensitive Plasmodium falciparum 3D7 after 48 hrs using Hema 3 staining by microscopic analysis. The class given is functional, organism-based. The conditions noted are these: 3D7, 48 h.
In data set [7] the test system is Plasmodium falciparum. The data set can be described thus: Antiplasmodial activity against chloroquine-resistant Plasmodium falciparum K1 after 48 hrs using Hema 3 staining by microscopic analysis. The data set is classed as functional, organism-based. The following applies: K1, 48 h.
A short description of data set [8]: Toxicity in human mononuclear leukocytes assessed as decrease in cell health at 5 to 500 uM after 5 days by microscopic analysis. The data set is classed as cell-based. The following applies: 120 h.
Data set [9] concerns Plasmodium falciparum. Briefly: Antiplasmodial activity against chloroquine-sensitive Plasmodium falciparum 3D7A assessed as parasitaemia level at 4 days dosage of 5 uM measured on day 9 using Hema 3 staining by microscopic analysis. The class given is functional.
Data set [10] concerns Plasmodium falciparum. The data set can be described thus: Antiplasmodial activity against chloroquine-sensitive Plasmodium falciparum 3D7A assessed as parasitaemia level at 4 days dosage of 5 uM using Hema 3 staining by microscopic analysis. The data set is classed as functional.
Data set [11] has as its system Plasmodium falciparum. The data set can be described thus: Antiplasmodial activity against chloroquine-sensitive Plasmodium falciparum 3D7A assessed as death of all detectable parasites at two days dosage of 0.5 to 500 uM using Hema 3 staining by microscopic analysis. The data set is classed as functional, organism-based.
Data set [12] relates to Plasmodium falciparum. The data set can be described thus: Antiplasmodial activity against chloroquine-sensitive Plasmodium falciparum 3D7A assessed as death of all detectable parasites at 4 days dosage of 0.5 to 500 uM using Hema 3 staining by microscopic analysis. The class given is functional, organism-based.
Data set [13] has as its system Plasmodium falciparum. Briefly: Antiplasmodial activity against chloroquine-sensitive Plasmodium falciparum 3D7A assessed as death of all detectable parasites at two days dosage of 0.05 uM using Hema 3 staining by microscopic analysis. The class given is functional, organism-based.
Data set [14] deals with Plasmodium falciparum. Briefly: Antiplasmodial activity against chloroquine-sensitive Plasmodium falciparum 3D7A assessed as death of all detectable parasites at 4 days dosage of 0.05 uM using Hema 3 staining by microscopic analysis. The data set is classed as functional, organism-based.
Data set [15] relates to Plasmodium falciparum. Briefly: Antiplasmodial activity against chloroquine-sensitive Plasmodium falciparum 3D7A assessed as assessed as parasitaemia level at two days dosage of 500 uM using Hema 3 staining by microscopic analysis. The class given is functional.
Data set [16] deals with Plasmodium falciparum. Briefly: Antiplasmodial activity against chloroquine-sensitive Plasmodium falciparum 3D7A assessed as assessed as parasitaemia level at 4 days dosage of 500 uM using Hema 3 staining by microscopic analysis. The class given is functional.

Activity calls are given as the source filed them. The calls are words filed in the database; no cut-off is given here. Where only a bound is given, the exact number is not on record here.

For `Clc1ccc2c(Nc3ccc(C4=NCCO4)cc3)ccnc2c1`, the result in the data set on Plasmodium falciparum [1], in the data set on Plasmodium falciparum [4] and in the data set on Plasmodium falciparum [5] was Active. Also, the Activity in the data set with Plasmodium falciparum [2] is reported as 0.25%; in the data set with Plasmodium falciparum [3], 5%; in data set [8], “Toxic”. Moreover, the IC50 with Plasmodium falciparum [6] stood at 192 nM; in the data set on Plasmodium falciparum [7], 846 nM.

In the case of `Clc1ccc2c(Nc3cccc(C4=NCCO4)c3)ccnc2c1`, the outcome with Plasmodium falciparum [1] and in the data set with Plasmodium falciparum [5] was Active. The Activity with Plasmodium falciparum [9] is reported as 5%; in the data set with Plasmodium falciparum [10] it was 0%; in data set [8] it was “Toxic”. The IC50 in the data set with Plasmodium falciparum [6] is 91 nM; in the data set with Plasmodium falciparum [7], 895 nM.

In the case of `CCN(CC)CCCC(C)Nc1ccnc2cc(Cl)ccc12` (stereo not given) [CHLOROQUINE], the result in the data set with Plasmodium falciparum [11] and with Plasmodium falciparum [12] was Active. For the same compound, the outcome with Plasmodium falciparum [13] and in the data set on Plasmodium falciparum [14] was inactive. Moreover, the Activity entry in [8] was “Toxic”.

On to `CC1(C)COC(c2cccc(Nc3ccnc4cc(Cl)ccc34)c2)=N1`, for which the result in the data set with Plasmodium falciparum [1] and in the data set on Plasmodium falciparum [5] was Active. For the same compound, the IC50 with Plasmodium falciparum [6] was 83 nM; in the data set with Plasmodium falciparum [7] it was 711 nM. Further, the Activity result in [8] is listed as “Toxic”.

In turn, `O=C1C(O)=C([C@H]2CC[C@H](c3ccc(Cl)cc3)CC2)C(=O)c2ccccc21` [ATOVAQUONE] returned an IC50 in the data set on Plasmodium falciparum [7] of 17.7 nM.

Take `CC1(C)COC(c2ccc(Nc3ccnc4cc(Cl)ccc34)cc2)=N1`: the Activity in the data set on Plasmodium falciparum [15] and in the data set on Plasmodium falciparum [16] was 0% in each case. In addition, the IC50 with Plasmodium falciparum [6] is 308 nM; with Plasmodium falciparum [7], above 1000 nM.

Usually IC50 stands for the midpoint of a concentration-inhibition curve. A high value points to a need for much substance.
